# Experimental data published in patent US8883799B2, “Tricyclic PI3K inhibitor compounds and methods of use” (Genentech, Inc., priority 2010, dated 2014).
# Target: T1, p110 alpha PI3K (Homo sapiens, UniProt P42336)
# T1 construct: purchased Upstate Cell Signaling Solutions, Charlottesville, Va
# Test: p110α (alpha) PI3K binding assay (fluorescence polarization; alternatively radiometric)
# Details: read-out: IC50, Ki (μmole) PI3K, p110 alpha binding assay
# Procedure: Binding Assays: Initial polarization experiments were performed on an Analyst HT® 96-384 (Molecular Devices Corp, Sunnyvale, Calif.). […] After an incubation time of 30 minutes at room temperature, the reactions were stopped by the addition of GRP-1 and PIP3-TAMRA probe (Echelon-Inc., Salt Lake City, Utah) 100 nM and 5 nM final concentrations respectively. Read with standard cut-off filters for the rhodamine fluorophore (λex=530 nm; λem=590 nm) in 384-well black low volume Proxiplates® (PerkinElmer, Wellesley, Mass.) Fluorescence polarization values were plotted as a function of the protein concentration, and the EC50 values were obtained by fitting the data to a 4-parameter equation using KaleidaGraph® software (Synergy software, Reading, Pa.). This experiment also establishes the appropriate protein concentration to use in subsequent competition experiments with inhibitors.
# After an incubation time of 30 minutes at room temperature, the reactions were stopped by the addition of GRP-1 and PIP3-TAMRA probe (Echelon-Inc., Salt Lake City, Utah) 100 nM and 5 nM final concentrations respectively. Read with standard cut-off filters for the rhodamine fluorophore (λex=530 nm; λem=590 nm) in 384-well black low volume PROXIPLATES® (PerkinElmer, Wellesley, Mass.) Fluorescence polarization values were plotted as a function of the antagonist concentration, and the IC50 values were obtained by fitting the data to a 4-parameter equation in Assay Explorer® software (MDL, San Ramon, Calif.).
# The Formula I compound was serially diluted in 100% DMSO. The kinase reaction was incubated for 1 hr at room temperature, and the reaction was terminated by the addition of PBS. IC50 values were subsequently determined using sigmoidal dose-response curve fit (variable slope).
# T1 sequence (P42336 whole entry): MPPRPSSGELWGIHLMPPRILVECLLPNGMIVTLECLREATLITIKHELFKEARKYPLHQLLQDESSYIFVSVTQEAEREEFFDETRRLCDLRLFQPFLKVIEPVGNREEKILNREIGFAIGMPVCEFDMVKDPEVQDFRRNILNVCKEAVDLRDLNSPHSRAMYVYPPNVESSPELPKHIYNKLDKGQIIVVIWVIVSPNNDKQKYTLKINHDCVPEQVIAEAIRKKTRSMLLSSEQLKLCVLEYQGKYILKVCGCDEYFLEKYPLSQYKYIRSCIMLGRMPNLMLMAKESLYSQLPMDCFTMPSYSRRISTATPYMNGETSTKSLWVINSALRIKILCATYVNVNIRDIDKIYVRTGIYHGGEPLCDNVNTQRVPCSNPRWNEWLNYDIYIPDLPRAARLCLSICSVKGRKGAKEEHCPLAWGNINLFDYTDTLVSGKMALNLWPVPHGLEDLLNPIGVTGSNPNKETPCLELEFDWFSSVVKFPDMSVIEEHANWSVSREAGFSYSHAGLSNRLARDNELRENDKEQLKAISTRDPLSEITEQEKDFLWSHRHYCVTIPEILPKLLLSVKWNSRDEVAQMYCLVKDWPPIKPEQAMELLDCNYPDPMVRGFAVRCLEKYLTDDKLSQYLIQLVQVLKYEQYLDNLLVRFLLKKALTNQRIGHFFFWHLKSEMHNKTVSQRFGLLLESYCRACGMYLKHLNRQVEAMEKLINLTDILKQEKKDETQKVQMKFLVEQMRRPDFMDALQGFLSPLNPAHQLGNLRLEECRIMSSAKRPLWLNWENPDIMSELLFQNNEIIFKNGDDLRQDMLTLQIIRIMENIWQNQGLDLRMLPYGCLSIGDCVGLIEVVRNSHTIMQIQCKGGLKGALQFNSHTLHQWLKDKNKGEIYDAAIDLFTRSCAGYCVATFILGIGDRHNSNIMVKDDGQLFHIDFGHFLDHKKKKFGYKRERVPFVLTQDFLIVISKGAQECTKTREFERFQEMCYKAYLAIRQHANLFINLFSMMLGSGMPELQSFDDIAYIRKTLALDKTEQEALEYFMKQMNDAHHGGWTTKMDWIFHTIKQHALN
# T1 sequence (P27986 whole entry partner): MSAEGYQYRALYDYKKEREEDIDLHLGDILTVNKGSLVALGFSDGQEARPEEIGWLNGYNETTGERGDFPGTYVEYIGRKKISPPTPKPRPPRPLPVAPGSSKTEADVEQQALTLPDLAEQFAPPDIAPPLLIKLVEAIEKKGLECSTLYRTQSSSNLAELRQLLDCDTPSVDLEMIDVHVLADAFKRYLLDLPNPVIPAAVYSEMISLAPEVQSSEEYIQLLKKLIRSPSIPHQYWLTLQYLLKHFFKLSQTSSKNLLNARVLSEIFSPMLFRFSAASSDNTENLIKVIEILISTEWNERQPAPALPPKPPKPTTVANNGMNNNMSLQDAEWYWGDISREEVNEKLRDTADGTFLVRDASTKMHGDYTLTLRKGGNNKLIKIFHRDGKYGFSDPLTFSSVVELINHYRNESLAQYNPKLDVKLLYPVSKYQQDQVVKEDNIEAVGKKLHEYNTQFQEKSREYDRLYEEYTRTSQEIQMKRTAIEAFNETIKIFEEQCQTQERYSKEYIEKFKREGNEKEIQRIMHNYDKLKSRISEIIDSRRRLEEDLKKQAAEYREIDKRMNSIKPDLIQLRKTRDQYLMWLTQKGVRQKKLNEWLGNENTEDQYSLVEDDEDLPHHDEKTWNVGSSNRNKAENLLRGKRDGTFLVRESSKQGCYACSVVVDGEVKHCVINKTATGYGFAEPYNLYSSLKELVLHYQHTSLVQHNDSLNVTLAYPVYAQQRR
row,Compound,IC50 [nM]
1,"CN(C(=O)OC(C)(C)C)c1ccc(-c2nc(N3CCOCC3)c3nc4n(c3n2)CCOC4(C)C)cc1 [Compound 143, tert-butyl 4-(6,6-dimethyl-4-morpholino-8,9-dihydro-6H-[1,4]oxazino[3,4-e]purin-2-yl)phenyl(methyl)carbamate]",> 695
2,"CN1CCN(c2ccc(-c3nc(N4CCOCC4)c4nc5n(c4n3)CCOC5(C)C)cc2)CC1 [Compound 156, 6,6-dimethyl-2-(4-(4-methylpiperazin-1-yl)phenyl)-4-morpholino-8,9-dihydro-6H-[1,4]oxazino[3,4-e]purine]",> 695
3,"CN1CCN(c2ccc(-c3nc(N4CCOCC4)c4nc5n(c4n3)CCOC5(C)C)cn2)CC1 [Compound 149, 6,6-dimethyl-2-(6-(4-methylpiperazin-1-yl)yridine-3-yl)-4-morpholino-8,9-dihydro-6H-[1,4]oxazino[3,4-e]purine]",> 695
4,"Cc1n[nH]c(C)c1-c1nc(N2CCOCC2)c2nc3n(c2n1)CCOC3(C)C [Compound 136, 2-(3,5-dimethyl-1H-pyrazol-4-yl)-6,6-dimethyl-4-morpholino-8,9-dihydro-6H-[1,4]oxazino[3,4-e]purine]",> 695
5,"Cn1cc(-c2nc(N3CCOCC3)c3nc4n(c3n2)CCOC4(C)C)cn1 [Compound 127, 6,6-dimethyl-2-(1-methyl-1H-pyrazol-4-yl)-4-morpholino-8,9-dihydro-6H-[1,4]oxazino[3,4-e]purine]",> 695
6,"CC1(C)OCCn2c1nc1c(N3CCOCC3)nc(-c3ccc(N4CCOCC4)nc3)nc12 [Compound 132, 6,6-dimethyl-4-morpholino-2-(6-morpholinopyridin-3-yl)-8,9-dihydro-6H-[1,4]oxazino[3,4-e]purine]",> 695
7,"CC1(C)OCCn2c1nc1c(N3CCOCC3)nc(-c3ccc(C#N)cc3)nc12 [Compound 151, 4-(6,6-dimethyl-4-morpholino-8,9-dihydro-6H-[1,4]oxazino[3,4-e]purin-2-yl)benzonitrile]",> 695
8,"CC1(C)OCCn2c1nc1c(N3CCOCC3)nc(-c3ccc4[nH]ncc4c3)nc12 [Compound 129, 2-(1H-indazol-5-yl)-6,6-dimethyl-4-morpholino-8,9-dihydro-6H-[1,4]oxazino[3,4-e]purine]",> 695
9,"CC(C)Oc1ncccc1-c1nc(N2CCOCC2)c2nc3n(c2n1)CCOC3(C)C [Compound 134, 2-(2-isopropoxypyridin-3-yl)-6,6-dimethyl-4-morpholino-8,9-dihydro-6H-[1,4]oxazino[3,4-e]purine]",> 695
10,"CC1(C)OCCn2c1nc1c(N3CCOCC3)nc(-c3cccc(CN4CCOCC4)c3)nc12 [Compound 146, 6,6-dimethyl-4-morpholino-2-(3-(morpholinomethyl)phenyl)-8,9-dihydro-6H-[1,4]oxazino[3,4-e]purine]",> 695
11,"CC1(C)OCCn2c1nc1c(N3CCOCC3)nc(-c3cnn(Cc4ccccc4)c3)nc12 [Compound 133, 2-(1-benzyl-1H-pyrazol-4-yl)-6,6-dimethyl-4-morpholino-8,9-dihydro-6H-[1,4]oxazino[3,4-e]purine]",> 695
12,"CCn1cc(-c2nc(N3CCOCC3)c3nc4n(c3n2)CCOC4(C)C)cn1 [Compound 141, 2-(1-ethyl-1H-pyrazol-4-yl)-6,6-dimethyl-4-morpholino-8,9-dihydro-6H-[1,4]oxazino[3,4-e]purine]",> 695
13,"CC1(C)OCCn2c1nc1c(N3CCOCC3)nc(-c3ccc(N4CCCCC4)cc3)nc12 [Compound 157, 6,6-dimethyl-4-morpholino-2-(4-(piperidin-1-yl)phenyl)-8,9-dihydro-6H-[1,4]oxazino[3,4-e]purine]",> 695
14,"CN1CCN(C(=O)c2ccc(-c3nc(N4CCOCC4)c4nc5n(c4n3)CCOC5(C)C)cc2)CC1 [Compound 161, (4-(6,6-dimethyl-4-morpholino-8,9-dihydro-6H-[1,4]oxazino[3,4-e]purin-2-yl)phenyl)(4-methylpiperazin-1-yl)methanone]",> 695
15,"CN1CCN(c2cc(-c3nc(N4CCOCC4)c4nc5n(c4n3)CCOC5(C)C)ccn2)CC1 [Compound 130, 6,6-dimethyl-2-(2-(4-methylpiperazin-1-yl)yridine-4-yl)-4-morpholino-8,9-dihydro-6H-[1,4]oxazino[3,4-e]purine]",> 695
16,"CC1(C)OCCn2c1nc1c(N3CCOCC3)nc(-c3ccc(OCc4ccccc4)cc3)nc12 [Compound 154, 2-(4-(benzyloxy)phenyl)-6,6-dimethyl-4-morpholino-8,9-dihydro-6H-[1,4]oxazino[3,4-e]purine]",> 695
17,"CC1(C)OCCn2c1nc1c(N3CCOCC3)nc(-c3cccc(OCc4ccccc4)c3)nc12 [Compound 147, 2-(3-(benzyloxy)phenyl)-6,6-dimethyl-4-morpholino-8,9-dihydro-6H-[1,4]oxazino[3,4-e]purine]",> 695

# Next, values leading:
row,IC50 [nM],Compound
1,> 695,"CC1(C)OCCn2c1nc1c(N3CCOCC3)nc(-c3cccc(CC#N)c3)nc12 [Compound 144, 2-(3-(6,6-dimethyl-4-morpholino-8,9-dihydro-6H-[1,4]oxazino[3,4-e]purin-2-yl)phenyl)acetonitrile]"
2,> 695,"CNC(=O)c1ccc(-c2nc(N3CCOCC3)c3nc4n(c3n2)CCOC4(C)C)cn1 [Compound 153, 5-(6,6-dimethyl-4-morpholino-8,9-dihydro-6H-[1,4]oxazino[3,4-e]purin-2-yl)-N-methylpicolinamide]"
3,> 695,"CN(C)c1cccc(-c2nc(N3CCOCC3)c3nc4n(c3n2)CCOC4(C)C)c1 [Compound 155, 3-(6,6-dimethyl-4-morpholino-8,9-dihydro-6H-[1,4]oxazino[3,4-e]purin-2-yl)-N,N-dimethylaniline]"
4,> 695,"CC1(C)OCCn2c1nc1c(N3CCOCC3)nc(-c3cccc(C(=O)NC4CC4)c3)nc12 [Compound 162, N-cyclopropyl-3-(6,6-dimethyl-4-morpholino-8,9-dihydro-6H-[1,4]oxazino[3,4-e]purin-2-yl)benzamide]"
5,> 695,"CN(C)C(=O)c1ccc(-c2nc(N3CCOCC3)c3nc4n(c3n2)CCOC4(C)C)cc1 [Compound 142, 4-(6,6-dimethyl-4-morpholino-8,9-dihydro-6H-[1,4]oxazino[3,4-e]purin-2-yl)-N,N-dimethylbenzamide]"
6,> 695,"CC1(C)OCCn2c1nc1c(N3CCOCC3)nc(-c3ccc(O)nc3)nc12 [Compound 137, 5-(6,6-dimethyl-4-morpholino-8,9-dihydro-6H-[1,4]oxazino[3,4-e]purin-2-yl)pyridine-2-ol]"
7,> 695,"CC1(C)OCCn2c1nc1c(N3CCOCC3)nc(-c3cccc(N4CCOCC4)c3)nc12 [Compound 145, 6,6-dimethyl-4-morpholino-2-(3-morpholinophenyl)-8,9-dihydro-6H-[1,4]oxazino[3,4-e]purine]"
8,> 695,"CC(=O)Nc1ccccc1-c1nc(N2CCOCC2)c2nc3n(c2n1)CCOC3(C)C [Compound 135, N-(2-(6,6-dimethyl-4-morpholino-8,9-dihydro-6H-[1,4]oxazino[3,4-e]purin-2-yl)phenyl)acetamide]"
